{"source": "ChEMBL document CHEMBL5465560", "about": "“Selectivity Literature for EUbOPEN Chemogenomic Library” (2024)", "key": {"[1]": {"biological_target": "cAMP-dependent protein kinase catalytic subunit beta (Homo sapiens) (UniProt P22694)", "conditions": "at 10 µM"}, "[2]": {"biological_target": "T1, Ephrin type-A receptor 1 (Homo sapiens) (UniProt P21709)", "T1 sequence (whole entry)": "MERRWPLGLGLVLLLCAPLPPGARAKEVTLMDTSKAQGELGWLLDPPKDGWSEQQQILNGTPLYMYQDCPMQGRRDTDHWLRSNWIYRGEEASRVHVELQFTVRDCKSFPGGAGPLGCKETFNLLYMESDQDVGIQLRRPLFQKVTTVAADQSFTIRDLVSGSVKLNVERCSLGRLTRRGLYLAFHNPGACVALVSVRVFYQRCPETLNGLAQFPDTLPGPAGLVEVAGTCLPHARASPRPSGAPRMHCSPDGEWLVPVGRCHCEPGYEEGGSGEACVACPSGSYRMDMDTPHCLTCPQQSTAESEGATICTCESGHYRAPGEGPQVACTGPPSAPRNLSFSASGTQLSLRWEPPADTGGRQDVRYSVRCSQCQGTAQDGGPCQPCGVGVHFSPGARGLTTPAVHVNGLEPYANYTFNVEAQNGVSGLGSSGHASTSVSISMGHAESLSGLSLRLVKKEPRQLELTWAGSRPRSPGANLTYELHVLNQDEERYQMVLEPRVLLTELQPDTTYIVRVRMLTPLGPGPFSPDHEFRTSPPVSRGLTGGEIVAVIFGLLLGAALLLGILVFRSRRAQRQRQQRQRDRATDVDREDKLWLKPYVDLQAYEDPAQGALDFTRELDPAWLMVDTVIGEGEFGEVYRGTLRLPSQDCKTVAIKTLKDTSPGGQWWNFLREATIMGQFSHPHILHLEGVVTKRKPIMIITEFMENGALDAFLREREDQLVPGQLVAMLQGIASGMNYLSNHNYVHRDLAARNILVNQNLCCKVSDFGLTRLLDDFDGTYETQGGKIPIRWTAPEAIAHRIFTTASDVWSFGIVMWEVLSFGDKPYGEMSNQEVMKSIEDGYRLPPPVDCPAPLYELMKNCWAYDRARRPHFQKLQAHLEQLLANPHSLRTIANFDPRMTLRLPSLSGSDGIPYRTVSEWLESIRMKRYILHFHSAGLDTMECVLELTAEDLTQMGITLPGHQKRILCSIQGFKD", "assay": "Selectivity interaction (KinomeScan (DiscoverX)) EUB0000092b EPHA1", "conditions": "at 10 µM"}, "[3]": {"biological_target": "T2, Serine/threonine-protein kinase TBK1 (Homo sapiens) (UniProt Q9UHD2)", "T2 sequence (whole entry)": "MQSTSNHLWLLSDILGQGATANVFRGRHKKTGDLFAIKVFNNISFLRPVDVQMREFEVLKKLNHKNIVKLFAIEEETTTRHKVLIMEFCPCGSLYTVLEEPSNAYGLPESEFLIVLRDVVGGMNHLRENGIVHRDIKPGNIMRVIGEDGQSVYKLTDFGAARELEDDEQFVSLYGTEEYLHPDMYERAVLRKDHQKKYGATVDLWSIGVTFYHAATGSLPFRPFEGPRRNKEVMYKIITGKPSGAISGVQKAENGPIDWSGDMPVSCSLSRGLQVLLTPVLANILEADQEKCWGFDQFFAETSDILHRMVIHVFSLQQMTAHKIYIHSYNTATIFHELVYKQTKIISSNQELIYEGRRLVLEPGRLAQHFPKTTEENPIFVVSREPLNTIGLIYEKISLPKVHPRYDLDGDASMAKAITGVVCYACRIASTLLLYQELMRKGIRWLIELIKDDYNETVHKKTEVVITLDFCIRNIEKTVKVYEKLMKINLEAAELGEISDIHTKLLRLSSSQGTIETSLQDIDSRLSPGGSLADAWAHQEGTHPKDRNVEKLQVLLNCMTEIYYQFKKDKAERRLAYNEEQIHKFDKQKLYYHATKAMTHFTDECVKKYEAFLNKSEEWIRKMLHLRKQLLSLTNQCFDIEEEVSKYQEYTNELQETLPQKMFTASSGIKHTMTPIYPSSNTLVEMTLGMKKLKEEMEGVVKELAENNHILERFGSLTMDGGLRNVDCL", "assay": "Selectivity interaction (ProQinase) EUB0000171b TBK1"}, "[4]": {"biological_target": "T3, Serine/threonine-protein kinase Sgk1 (Homo sapiens) (UniProt O00141)", "T3 sequence (whole entry)": "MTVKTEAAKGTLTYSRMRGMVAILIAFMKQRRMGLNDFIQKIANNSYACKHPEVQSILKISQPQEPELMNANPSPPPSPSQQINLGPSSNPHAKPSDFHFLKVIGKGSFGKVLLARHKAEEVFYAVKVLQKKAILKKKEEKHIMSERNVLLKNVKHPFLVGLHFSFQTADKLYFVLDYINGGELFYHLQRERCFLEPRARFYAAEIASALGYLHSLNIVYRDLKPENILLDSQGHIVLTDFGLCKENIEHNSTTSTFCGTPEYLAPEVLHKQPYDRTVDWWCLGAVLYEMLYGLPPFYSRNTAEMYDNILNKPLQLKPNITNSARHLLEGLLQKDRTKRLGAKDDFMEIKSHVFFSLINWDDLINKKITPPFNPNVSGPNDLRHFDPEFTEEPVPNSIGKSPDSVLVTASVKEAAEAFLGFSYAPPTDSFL", "assay": "Selectivity interaction (ActivX KiNativ screen (kinase selectivity in THP-1 cell lysates)) EUB0000639a SGK1", "type": "subcellular", "conditions": "lysate"}, "[5]": {"biological_target": "Mitogen-activated protein kinase 9 (Homo sapiens, UniProt P45984)", "sequence (P45984 whole entry, looked up)": "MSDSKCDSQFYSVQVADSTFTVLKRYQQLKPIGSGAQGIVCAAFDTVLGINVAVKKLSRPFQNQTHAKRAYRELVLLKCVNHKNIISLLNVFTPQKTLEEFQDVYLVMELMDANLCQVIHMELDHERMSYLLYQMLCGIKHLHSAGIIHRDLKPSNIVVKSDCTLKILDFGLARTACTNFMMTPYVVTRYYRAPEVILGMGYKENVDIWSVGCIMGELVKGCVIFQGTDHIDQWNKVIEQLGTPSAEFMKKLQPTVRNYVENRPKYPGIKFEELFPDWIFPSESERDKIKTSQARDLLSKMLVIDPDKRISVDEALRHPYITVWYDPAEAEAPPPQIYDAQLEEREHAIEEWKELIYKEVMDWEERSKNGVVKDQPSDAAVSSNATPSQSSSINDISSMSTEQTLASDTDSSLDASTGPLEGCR", "assay": "Selectivity interaction (Kinase panel (Invitrogen)) EUB0000639a MAPK9", "conditions": "at 200 nM"}, "[6]": {"biological_target": "T4, Testis-specific serine/threonine-protein kinase 3 (Homo sapiens) (UniProt Q96PN8)", "T4 sequence (whole entry)": "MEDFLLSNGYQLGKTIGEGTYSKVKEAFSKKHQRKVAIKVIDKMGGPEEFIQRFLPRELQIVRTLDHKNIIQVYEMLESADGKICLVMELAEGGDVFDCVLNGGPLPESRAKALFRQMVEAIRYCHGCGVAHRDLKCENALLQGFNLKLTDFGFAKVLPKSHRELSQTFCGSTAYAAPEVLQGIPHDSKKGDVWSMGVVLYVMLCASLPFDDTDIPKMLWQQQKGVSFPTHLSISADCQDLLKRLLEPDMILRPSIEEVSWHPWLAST", "assay": "Selectivity interaction (Kinase panel (Invitrogen)) EUB0000639a TSSK3", "conditions": "at 200 nM"}, "[7]": {"biological_target": "Serine/threonine-protein kinase MARK2 (Homo sapiens) (UniProt Q7KZI7)", "sequence (Q7KZI7 whole entry)": "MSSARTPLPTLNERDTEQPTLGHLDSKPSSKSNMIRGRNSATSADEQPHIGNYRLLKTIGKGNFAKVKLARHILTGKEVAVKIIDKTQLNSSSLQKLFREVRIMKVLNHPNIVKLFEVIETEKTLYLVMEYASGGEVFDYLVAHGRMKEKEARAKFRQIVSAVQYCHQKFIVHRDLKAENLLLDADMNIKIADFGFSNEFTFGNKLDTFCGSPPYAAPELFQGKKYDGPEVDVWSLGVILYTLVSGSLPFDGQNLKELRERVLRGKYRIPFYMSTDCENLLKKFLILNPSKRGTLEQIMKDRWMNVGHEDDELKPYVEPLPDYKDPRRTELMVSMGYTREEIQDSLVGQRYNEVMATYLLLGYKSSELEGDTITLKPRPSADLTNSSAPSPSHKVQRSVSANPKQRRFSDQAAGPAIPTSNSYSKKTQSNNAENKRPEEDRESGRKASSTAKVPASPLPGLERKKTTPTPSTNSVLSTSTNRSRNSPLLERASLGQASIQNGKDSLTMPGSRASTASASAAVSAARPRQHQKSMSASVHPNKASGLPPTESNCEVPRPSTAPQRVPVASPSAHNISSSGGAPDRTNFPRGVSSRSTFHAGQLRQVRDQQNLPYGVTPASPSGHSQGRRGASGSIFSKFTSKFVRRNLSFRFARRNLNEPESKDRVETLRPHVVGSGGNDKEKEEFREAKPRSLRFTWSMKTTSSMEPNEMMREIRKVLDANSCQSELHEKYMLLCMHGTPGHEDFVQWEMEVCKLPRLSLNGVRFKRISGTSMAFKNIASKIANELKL", "assay": "Selectivity interaction (SelectScreen profiling (Invitrogen)) EUB0000607a MARK2", "conditions": "at 2 µM"}, "[8]": {"biological_target": "Tyrosine-protein kinase BTK (Homo sapiens, UniProt Q06187)", "sequence (Q06187 whole entry)": "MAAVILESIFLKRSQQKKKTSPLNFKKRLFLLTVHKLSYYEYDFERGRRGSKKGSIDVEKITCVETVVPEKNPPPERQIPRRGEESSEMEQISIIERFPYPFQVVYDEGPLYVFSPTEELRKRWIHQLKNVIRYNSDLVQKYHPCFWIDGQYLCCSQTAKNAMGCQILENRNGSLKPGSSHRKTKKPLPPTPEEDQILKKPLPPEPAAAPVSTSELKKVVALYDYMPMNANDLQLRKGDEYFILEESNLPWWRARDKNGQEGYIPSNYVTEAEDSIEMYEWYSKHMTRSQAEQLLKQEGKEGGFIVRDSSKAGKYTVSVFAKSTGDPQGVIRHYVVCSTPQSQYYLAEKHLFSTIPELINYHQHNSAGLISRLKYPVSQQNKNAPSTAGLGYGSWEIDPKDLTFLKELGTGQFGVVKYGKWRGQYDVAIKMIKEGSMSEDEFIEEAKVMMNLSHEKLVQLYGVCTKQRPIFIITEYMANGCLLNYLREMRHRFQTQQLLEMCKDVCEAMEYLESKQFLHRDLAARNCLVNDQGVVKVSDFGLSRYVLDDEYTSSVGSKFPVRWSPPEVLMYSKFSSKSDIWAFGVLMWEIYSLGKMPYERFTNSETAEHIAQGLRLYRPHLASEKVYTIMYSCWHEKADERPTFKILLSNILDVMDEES", "assay": "Selectivity interaction (KinomeScan (DiscoverX)) EUB0001049a BTK", "conditions": "at 1 µM"}, "[9]": {"biological_target": "Phosphatidylinositol 4,5-bisphosphate 3-kinase catalytic subunit beta isoform (Homo sapiens) (UniProt P42338)", "sequence (P42338 whole entry, looked up, canonical isoform)": "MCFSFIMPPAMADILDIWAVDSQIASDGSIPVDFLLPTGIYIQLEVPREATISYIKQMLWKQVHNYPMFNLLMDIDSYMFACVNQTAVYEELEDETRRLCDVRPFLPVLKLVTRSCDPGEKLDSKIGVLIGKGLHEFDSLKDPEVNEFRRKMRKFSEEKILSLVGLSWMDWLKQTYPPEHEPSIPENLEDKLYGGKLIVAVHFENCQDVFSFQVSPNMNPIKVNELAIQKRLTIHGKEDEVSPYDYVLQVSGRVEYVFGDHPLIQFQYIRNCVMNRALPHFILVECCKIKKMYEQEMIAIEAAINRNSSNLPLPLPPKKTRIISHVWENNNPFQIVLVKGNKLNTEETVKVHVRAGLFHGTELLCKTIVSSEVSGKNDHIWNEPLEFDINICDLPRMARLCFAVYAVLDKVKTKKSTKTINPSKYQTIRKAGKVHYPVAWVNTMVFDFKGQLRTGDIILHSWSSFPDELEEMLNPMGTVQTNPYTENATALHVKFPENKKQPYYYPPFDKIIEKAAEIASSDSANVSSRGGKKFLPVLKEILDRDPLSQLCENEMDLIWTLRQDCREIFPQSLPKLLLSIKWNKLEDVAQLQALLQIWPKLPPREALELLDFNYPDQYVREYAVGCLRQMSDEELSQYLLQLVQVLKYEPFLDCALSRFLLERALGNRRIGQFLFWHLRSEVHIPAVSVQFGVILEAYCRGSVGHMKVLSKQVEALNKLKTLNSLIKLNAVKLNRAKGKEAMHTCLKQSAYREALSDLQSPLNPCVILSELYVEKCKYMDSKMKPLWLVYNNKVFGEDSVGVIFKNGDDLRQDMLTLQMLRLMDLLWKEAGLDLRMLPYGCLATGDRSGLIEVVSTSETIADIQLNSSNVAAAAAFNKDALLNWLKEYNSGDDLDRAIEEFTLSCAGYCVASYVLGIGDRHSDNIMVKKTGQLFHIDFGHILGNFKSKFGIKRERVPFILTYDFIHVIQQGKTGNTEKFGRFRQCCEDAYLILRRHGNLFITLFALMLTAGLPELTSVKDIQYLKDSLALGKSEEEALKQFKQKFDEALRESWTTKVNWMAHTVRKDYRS", "assay": "Selectivity interaction (KinomeScan (DiscoverX)) EUB0000618a PIK3CB", "conditions": "at 10 µM"}}}
{"smiles": "CCN(CC)CCCCNc1ncc2cc(-c3cc(OC)cc(OC)c3)c(NC(=O)NC(C)(C)C)nc2n1", "values": [{"measurement": "% of control", "setting": "[1]", "result": 100, "unit": "%"}]}
{"smiles": "CCC(=O)N1CCN(c2ccc(-n3c(=O)ccc4cnc5ccc(-c6cnc7ccccc7c6)cc5c43)cc2C(F)(F)F)CC1", "values": [{"measurement": "% of control", "setting": "[2]", "result": 62, "unit": "%"}]}
{"smiles": "C=CC(=O)Nc1cccc(C(=O)Nc2ccc(Nc3cc(-c4[nH]c(SC)nc4C)ccn3)cc2)c1", "values": [{"measurement": "% of control", "setting": "[3]; at 1 µM", "result": 84, "unit": "%"}, {"measurement": "% of control", "setting": "[3]; at 5 µM", "result": 69, "unit": "%"}]}
{"smiles": "CC[C@@H]1[C@H](F)C(=O)N[C@@H]1COc1nccc2cc(C(N)=O)c(OC)cc12", "note": "[ZIMLOVISERTIB]", "values": [{"measurement": "% of inhibition", "setting": "[4]; at 0.01 µM", "result": -1, "unit": "%"}, {"measurement": "% of inhibition", "setting": "[4]; at 0.04 µM", "result": 3.1, "unit": "%"}, {"measurement": "% of inhibition", "setting": "[4]; at 0.2 µM", "result": -5.7, "unit": "%"}, {"measurement": "% of inhibition", "setting": "[4]; at 1 µM", "result": -1, "unit": "%"}, {"measurement": "% of inhibition", "setting": "[4]; at 5 µM", "result": -1.4, "unit": "%"}, {"measurement": "% of inhibition", "setting": "[5]", "result": 2.83, "unit": "%"}, {"measurement": "% of inhibition", "setting": "[6]", "result": 16.3, "unit": "%"}]}
{"smiles": "CNC(=O)Nc1ccc(-c2nc(N3CC4CCC(C3)O4)c3cnn(C4CCC5(CC4)OCCO5)c3n2)cc1", "values": [{"measurement": "% of inhibition", "setting": "[7]", "result": 12, "unit": "%"}]}
{"smiles": "COc1cc(Nc2nc(C)cc(-c3cnn4nc(OC)ccc34)n2)cc(C(F)(F)F)c1", "values": [{"measurement": "% of control", "setting": "[8]", "result": 87, "unit": "%"}]}
{"smiles": "O[C@H]1CC[C@H](Nc2ncc3nc(Nc4c(F)cc(F)cc4F)n([C@H]4CCOC4)c3n2)CC1", "values": [{"measurement": "% of control", "setting": "[9]", "result": 100, "unit": "%"}]}
